Laboratory results published in US5677325A, “4-imidazolidinone compound” (Adir Et Compagnie, priority 1995, dated 1997).
Values joined by “and” are separate entries in the source; they are usually repeats but may differ in a detail not shown here. Equal values may be shown once.

What was measured:
[1] = test system: NMDA channel; experiment: Binding of [^3 H]-MK 801 to rat brain membranes (NMDA channel), stimulation or inhibition; set-up: species or system rat (Wistar); settings: for ME (maximum effect) on [^3 H]-MK 801 binding: with respect to a base of 0%, + = stimulation, - = inhibition; for IC50: read-out: IC50, [^3 H]-MK 801 binding, [^3 H]-MK 801 1 nM, 120 minutes at 20° C., antagonists; for activity at glycine B receptor (in words): agonist character
Method: (§1) Preparation of the membranes (according to Yoneda et al., J. Neurochem., 55, 1, 237-244, 1990)
(§2) The membranes are prepared and used in the same way for both radioligands. The buffers are prepared with sterile Milli-Q water (Millipore) which is deionized and filtered, just before use, on a nitrocellulose filter (0.45 μm).
(§3) After dissection, the brains from rats (Wistar males, 240-260 g), freed from the cerebellum, are placed in an ice-cold buffer comprising Tris-acetate (1 mM), EGTA (1 mM) and sucrose (320 mM) at pH 7. The brains are milled and then homogenized using a polytron. The suspension is centrifuged for 10 minutes at 1000 g and the supernatent containing the membranes is recovered and recentrifuged for 20 minutes at 35000 g. The pellet, freed from a brown ring, is recovered in a lysis buffer comprising Tris-acetate (1 mM) and EGTA (1 mM) at pH 8. The suspension is then left for 15 minutes at 4° C. and is then centrifuged for 20 minutes at 35000 g. The pellet is recovered in a Tris-acetate (50 mM) buffer at pH 7.4 containing 0.08% Triton and left for 30 minutes at 4° C.
(§4) After two successive centrifugings, the pellet is taken up in Tris-acetate (50 mM) buffer at pH 7.4, divided into aliquots and stored at -80° C. On the day of the experiment, at most 3 weeks after the preparation, the membranes are washed twice with Tris-acetate (50 mM) buffer at pH 7.4.
(§5) Binding experiments (according to Yoneda et al., J. Neurochem., 60, 2, 634-645, 1993)
(§6) The free and bound radioligands are separated on GF/B filters, preimpregnated with PEI (0.1%), using a Brandle filtration device. […] Each filter is rinsed 3 times. The radioactivity is measured using a β-counter (Tricarb 1500, Packard) and expressed in dpm. The curves obtained are analyzed using GraphPad Prism software (non-linear regression).
The opening of the channel of the NMDA receptor complex is modulated positively by the glycinergic site.

[2] = target: T1, glycine B site (Rattus norvegicus, UniProt P35439); experiment: Binding of [^3 H]-glycine to rat brain membranes (glycine B site); set-up: species or system rat (Wistar); settings: [^3 H]-glycine 10 nM, 20 minutes at 4° C., concentration inhibiting radioligand binding by 50%
T1 construct: from tissue; host or cells: rat brain without cerebellum (Wistar males), Triton-treated membranes
Method: as §1, §2, §3, §4, §5, §6

| ME (maximum effect) on [^3 H]-MK 801 binding ([1]; at 100 μM) | IC50 [1] | IC50 [2] | ME (maximum effect) on [^3 H]-MK 801 binding ([1]; at 10 μM) | ME (maximum effect) on [^3 H]-MK 801 binding ([1]; at 10 μM, listed as compound of the invention) | activity at glycine B receptor (in words) ([1]; qualitative, listed as compound of the invention) | activity at glycine B receptor (in words) ([1]; qualitative, listed as compound of the present invention) | effect on binding of [^3 H]-MK 801 (in words) ([1]; rat brain membranes, qualitative) | IC50 ([2]; listed as compound of the invention) | ME (maximum effect) on [^3 H]-MK 801 binding ([1]; at 1 μM) | Structure (SMILES) |
| --- | --- | --- | --- | --- | --- | --- | --- | --- | --- | --- |
| -85 ± 7% | 6.73 µM | 7.3 µM |  |  |  |  |  |  |  | N[C@@H]1CCN(O)C1=O [(+)-HA966] |
|  |  | 6.81 ± 0.545 µM | +46 ± 3% | 46% | behaves as an agonist | powerful partial agonist | stimulates the binding of [^3 H]-MK 801 | 6.8 µM |  | O=C1CNCN1O [Example 1, 3-Hydroxy-4-imidazolidinone] |
|  | 0.022 µM | 0.026 µM and ~0.026 µM |  |  |  |  |  |  | -91 ± 3% | O=c1[nH]c2cc(Cl)ccc2c(O)c1-c1cccc(Oc2ccccc2)c1 [L 701,324] |
